Laboratory results as given in patent publication US20070203244A1, “INHIBITORS OF MEMBRANE TYPE-1 MATRIX METALLOPROTEINASE FOR THE TREATMENT OF INSULIN-DEPENDENT DIABETES MELLITUS” (priority 2006, published 2007).
pEC50, pIC50: −log10 of the molar value.

Columns and labels:
[1] = cited from earlier work
MMP-9 [2] = biological target: T1, MMP-9 (Homo sapiens, UniProt P14780); conditions: cited from earlier work
MMP-2 = biological target: T2, MMP-2 (Homo sapiens, UniProt P08253); conditions: cited from earlier work
T2 sequence (P08253 110-660): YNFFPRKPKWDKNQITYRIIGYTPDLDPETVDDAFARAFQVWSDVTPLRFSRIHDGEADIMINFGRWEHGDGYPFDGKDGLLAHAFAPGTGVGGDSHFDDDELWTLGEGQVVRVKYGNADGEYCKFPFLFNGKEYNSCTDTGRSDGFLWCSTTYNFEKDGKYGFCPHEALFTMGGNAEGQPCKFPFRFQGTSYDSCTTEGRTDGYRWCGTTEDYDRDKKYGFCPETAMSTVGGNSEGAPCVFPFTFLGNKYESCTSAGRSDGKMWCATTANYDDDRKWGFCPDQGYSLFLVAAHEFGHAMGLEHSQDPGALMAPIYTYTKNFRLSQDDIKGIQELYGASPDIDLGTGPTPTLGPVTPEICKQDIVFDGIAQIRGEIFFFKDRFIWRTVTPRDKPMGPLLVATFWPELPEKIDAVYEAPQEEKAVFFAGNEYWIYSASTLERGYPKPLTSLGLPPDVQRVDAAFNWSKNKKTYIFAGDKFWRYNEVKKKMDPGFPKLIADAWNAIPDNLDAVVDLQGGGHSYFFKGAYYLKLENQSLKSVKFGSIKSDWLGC

MMP-7 [3] = biological target: T3, MMP-7 (Homo sapiens, UniProt P09237); conditions: read-out: IC50 for MMP-7 inhibition; cited from earlier work
T3 sequence (P09237 95-267): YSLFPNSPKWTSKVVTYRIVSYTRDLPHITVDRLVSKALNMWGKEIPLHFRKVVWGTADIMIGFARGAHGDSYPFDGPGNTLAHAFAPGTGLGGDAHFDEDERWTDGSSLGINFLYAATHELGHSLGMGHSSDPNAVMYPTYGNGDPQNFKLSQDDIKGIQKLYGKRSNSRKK

MT1-MMP [4] = conditions: HT1080 fibrosarcoma cell line; cited from earlier work
CD44 = experiment: Cleavage of cellular CD44 by external MT1-MMP-CAT in IS-CD8+ cells (FACS, Western blotting); assay type: cell-based, NOD mouse; conditions: GM6001 50 μM added to cells co-incubated with MT1-MMP-CAT
Protocol: Treatment of Cells with MT1-MMP-CAT—The catalytic domain of MT1-MMP (MT1-MMP-CAT; 3 μg) was co-incubated for 2 h at 37° C. with IS-CD8^+ cells (1×10^7 cells) in 0.2 ml of 50 mM HEPES, 10 Mm CaCl2, 0.5 mM MgCl2, 50 μM ZnCl2, and 0.01% Brij-35 buffer, pH 6.8. Where indicated, GM6001 (50 μM; Chemicon, Temecula, Calif.) was added to the samples. Following treatment, the cells were injected into the irradiated mice or used for DiI labeling, Western blotting, FACS analysis, and other analytical procedures (Savinov, A. Y., et al. (2003); Deryugina, E. I., et al. (2001); Rozanov, D. V., et al. (2001)).
Western Blotting—IS-CD8^+ cells were surface biotinylated for 1 h at 4° C. with 0.1 mg/ml sulfo-NHS-LC-biotin (Pierce, Rockford, Ill.). Following washes to remove biotin, cells were co-incubated for 2 h with MT1-MMP-CAT in serum-free, unsupplemented Click's medium. […]
Monoclonal Antibodies and FACS Analysis—IS-CD8^+ cells were stained with the MT1-MMP (Ab815; Chemicon), CD44 (clone IM7.8.1), CD3 (clone 17A2), and CD49d (clone SG31) monoclonal antibodies (all from BD Biosciences, Rockville, Md.) and the CD29 monoclonal antibody (Chemicon), followed by staining with fluorescein isothiocyanate- or phycoerythrinconjugated secondary antibody (BD Biosciences), and then analyzed on a FACScan flow cytometer (Becton Dickinson, Franklin Lakes, N.J.). […]

MT1-MMP [5] = biological target: T4, MT1-MMP (Mus musculus, UniProt P53690); experiment: MT1-MMP-dependent MMP-2 activation in adherent IS-CD8+ cells, gelatin zymography; assay type: cell-based, NOD mouse; conditions: Example 1: adherent IS-CD8+ cells on gelatin, 4 h
T4 construct: Endogenous MT1-MMP is latent in non-adherent IS-CD8^+ cells; endogenous in cells; host or cells: IS-CD8+ T cells (TGNFC8 clone, NOD mouse), adherent to gelatin
Protocol: MT1-MMP-dependent MMP-2 Activation and Gelatin Zymography—IS-CD8^+ cells (1×10^6) were either allowed to adhere for 4 h in serum-free unsupplemented Click's medium to plastic coated with 2% gelatin or kept in solution. Under these experimental conditions, the vast majority of cells became attached to gelatin. In 4 h, media samples (30 μl each) were withdrawn and analyzed by gelatin zymography (Deryugina, E. I., et al. (2001)) to identify the proteolytic activity and the activation status of MMP-2 naturally synthesized by IS-CD8^+ cells. Where indicated, cells were supplemented with external purified pro-MMP-2 (20 ng). Pro-MMP-2 was isolated from a conditioned medium of p2AHT2A72 cells derived from an HT1080 fibrosarcoma cell line sequentially transfected with the E1A and MMP-2 cDNAs (Strongin, A. Y., et al. (1995)).
MT1-MMP-dependent MMP-2 activation and gelatin zymography—IS-CD8^+ cells (1×10^6) were either allowed to adhere for 4 h in serum-free unsupplemented Click's medium to the plastic coated with 2% gelatin or kept in solution. In 18 h, media samples (30 μl each) were withdrawn and analyzed by gelatin zymography (Deryugina, E. I., et al. (2001)) to identify the proteolytic activity and the activation status of MMP-2 naturally synthesized by IS-CD8^+ cells. […] Pro-MMP-2 was isolated from a conditioned medium of p2AHT2A72 cells derived from an HT1080 fibrosarcoma cell line sequentially transfected with the E1A and MMP-2 cDNAs (Strongin, A. Y., et al. (1995)).

[6] = tested on: CD44 shedding in IS-CD8+ cells; experiment: CD44 shedding in adherent IS-CD8+ cells, Western blotting; assay type: cell-based, NOD mouse; conditions: Example 1: adherent IS-CD8+ cells on gelatin
Protocol: Western Blotting—IS-CD8^+ cells were surface biotinylated for 1 h at 4° C. with 0.1 mg/ml sulfo-NHS-LC-biotin (Pierce, Rockford, Ill.). Following washes to remove biotin, cells were co-incubated for 2 h with MT1-MMP-CAT in serum-free, unsupplemented Click's medium. The cells were then lysed with 50 mM N-octyl-β-D-glucopyranoside in phosphate-buffered saline supplemented with 1 mM CaCl2, 1 mM MgCl2, and protease inhibitor mixture containing phenylmethylsulfonyl fluoride (1 mM) and aprotinin, pepstatin, and leupeptin (1 μg/ml each). Biotin-labeled CD44 was captured from the cell lysate and from the medium aliquots on streptavidin-agarose beads. The captured samples were examined by Western blotting with the CD44 (clone IM7.8.1) antibody to determine the released, soluble, CD44 ectodomain in the medium samples and the residual, membrane-anchored, cellular CD44 in the cell lysates.
Western blotting—IS-CD8^+ cells were surface biotinylated for 1 hr at 4° C. with 0.1 mg/ml of sulfo-NES-LC-biotin (Pierce). Following washes to remove biotin, the labeled cells were allowed to adhere in serum-free medium to plastic coated with 2% type I collagen/gelatin for 4 h or were kept in suspension. Under these experimental conditions, the vast majority of the cells became attached to gelatin. […] The cells were then lysed with 50 mM N-octyl-β-D-glucopyranoside in PBS supplemented with 1 mM CaCl2, 1 mM MgCl2, and protease inhibitor cocktail containing phenylmethylsulfonyl fluoride (1 mM) and aprotinin, pepstatin, and leupeptin (1 μg/ml each). Biotin-labeled CD44 was captured from the cell lysate and from the medium aliquots on streptavidine-Agarose beads. The captured samples were examined by Western blotting with the CD44 (clone IM7.8.1) antibody to determine the released, soluble, CD44 ectodomain in the medium samples and the residual, membrane-anchored, cellular CD44 in the cell lysates.

MMP-9 [7] = biological target: T1, MMP-9; conditions: read-out: EC50 against MMP-9; cited from earlier work
MMP-7 [8] = biological target: T3, MMP-7; conditions: read-out: EC50 against MMP-7; cited from earlier work
[9] = tested on: Zucker diabetic fatty rats; conditions: cited from earlier work
MT1-MMP [10] = conditions: read-out: EC50 against MT1-MMP; cited from earlier work
[11] = biological target: cell surface-associated CD44 of IS-CD8+ T cells (mouse) (UniProt P15379); experiment: cell-based or functional assay
[12] = biological target: cell surface-associated CD44 of IS-CD8+ T cells (UniProt P15379)
Chain of cell surface-associated CD44 of IS-CD8+ T cells (P15379 23-778): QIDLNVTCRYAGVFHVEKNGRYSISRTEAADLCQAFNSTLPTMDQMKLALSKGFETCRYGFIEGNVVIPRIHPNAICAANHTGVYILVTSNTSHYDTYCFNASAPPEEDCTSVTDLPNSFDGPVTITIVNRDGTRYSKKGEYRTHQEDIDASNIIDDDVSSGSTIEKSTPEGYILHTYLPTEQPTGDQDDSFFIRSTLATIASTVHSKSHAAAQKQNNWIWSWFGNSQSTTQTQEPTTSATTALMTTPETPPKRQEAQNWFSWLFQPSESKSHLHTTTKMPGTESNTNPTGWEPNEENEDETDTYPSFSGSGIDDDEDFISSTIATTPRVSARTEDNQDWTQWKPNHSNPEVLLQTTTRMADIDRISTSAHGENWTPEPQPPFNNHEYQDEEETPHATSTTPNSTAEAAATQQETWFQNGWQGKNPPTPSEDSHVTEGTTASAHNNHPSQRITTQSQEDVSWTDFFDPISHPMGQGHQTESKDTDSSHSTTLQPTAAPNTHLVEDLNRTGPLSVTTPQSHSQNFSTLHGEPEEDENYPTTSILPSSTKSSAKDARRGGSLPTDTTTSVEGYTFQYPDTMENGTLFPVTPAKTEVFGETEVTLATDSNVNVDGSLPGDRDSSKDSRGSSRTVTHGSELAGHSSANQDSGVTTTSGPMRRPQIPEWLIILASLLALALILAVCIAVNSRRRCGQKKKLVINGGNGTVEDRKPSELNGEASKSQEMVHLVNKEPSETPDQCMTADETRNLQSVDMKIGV

T1 sequence (P14780 94-707, species assumed): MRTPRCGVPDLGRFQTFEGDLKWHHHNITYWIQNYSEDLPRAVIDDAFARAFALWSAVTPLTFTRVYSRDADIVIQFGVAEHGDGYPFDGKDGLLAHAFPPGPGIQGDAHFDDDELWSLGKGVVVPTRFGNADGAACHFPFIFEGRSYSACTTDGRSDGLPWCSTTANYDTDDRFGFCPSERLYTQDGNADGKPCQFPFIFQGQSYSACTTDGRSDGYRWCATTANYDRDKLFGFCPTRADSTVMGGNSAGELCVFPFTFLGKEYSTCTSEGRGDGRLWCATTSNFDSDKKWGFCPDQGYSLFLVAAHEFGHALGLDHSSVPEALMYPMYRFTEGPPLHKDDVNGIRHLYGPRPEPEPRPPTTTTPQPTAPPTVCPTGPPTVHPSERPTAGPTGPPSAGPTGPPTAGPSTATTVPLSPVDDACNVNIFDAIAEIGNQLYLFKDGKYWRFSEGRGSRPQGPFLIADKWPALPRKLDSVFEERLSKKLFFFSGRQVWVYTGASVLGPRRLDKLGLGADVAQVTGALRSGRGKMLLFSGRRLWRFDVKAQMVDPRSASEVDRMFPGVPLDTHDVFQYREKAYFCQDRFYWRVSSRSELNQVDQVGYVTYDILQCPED
Chain of cell surface-associated CD44 of IS-CD8+ T cells (mouse) (P15379 23-778): as the sequence (P15379 23-778) above

O=C(C[C@H](CSc1ccccc1)C(=O)O)c1ccc(-c2ccc(Cl)cc2)cc1 [BAY 12-9566]
time to peak plasma concentrations after dosing ([1]; after oral administration): 0.5 to 2 h | linearity of pharmacokinetics ([1]; normal volunteers, doses of up to 100 mg/day): linear | effect of repeated administration on clearance ([1]; repeated administration): increased clearance | IC50 for MMP-9 inhibition (MMP-9 [2]): below 0.13 μg/mL | IC50 for MMP-2 inhibition (MMP-2): below 0.13 μg/mL

CNC(=O)[C@H](Cc1ccccc1)NC(=O)[C@H](CC(C)C)[C@H](CSc1cccs1)C(=O)NO [Batimastat]
pIC50 (MMP-9 [2]; read-out: IC50 for MMP-9 inhibition): > 7.68 | pIC50 (MMP-7 [3]): > 7.68

O=P(O)(O)C(Cl)(Cl)P(=O)(O)O [Clodronate]
expression of MT1-MMP protein and messenger RNA (MT1-MMP [4]): inhibited

CNC(=O)[C@H](Cc1c[nH]c2ccccc12)NC(=O)[C@@H](CC(=O)NO)CC(C)C [GM6001]
effect on MT1-MMP-CAT cleavage of cellular CD44 (CD44): reversed the effect of MT1-MMP-CAT | activation of MMP-2 in adherent cells (MT1-MMP [5]): blocked | shedding of CD44 in adherent cells [6]: blocked

CC(C)[C@H](NS(=O)(=O)c1ccc(-c2ccc(Br)cc2)cc1)C(=O)O [PD166793, (S)-2-(4′-bromo-biphenyl-4-sulfonylamino)-3-methyl-butyric acid]
pEC50 (MMP-9 [7]): 5.10 | pEC50 (MMP-7 [8]): 5.14 | β cell mass [9]: preserved β cell mass | pEC50 (MT1-MMP [10]): 6.62

MMP-2 (as incubated with α1-antitrypsin)
cleavage of α1-antitrypsin in vitro, reducing SDS-gel electrophoresis (α1-antitrypsin): the MMP-2 proteolysis of α1-antitrypsin (a sensitive and readily available protein substrate of MMPs) and converting this 61 kDa serpin into a 55 kDa degradation fragment

catalytic domain of MT1-MMP (MT1-MMP-CAT) (enzyme)
homing of DiI-labeled IS-CD8+ cells into the pancreatic islets of NOD mice, 24 h [11]: 4.5 fold

cell surface-associated MT1-MMP of IS-CD8+ T cells
release of CD44 proteolytic fragments into medium, Western blotting [12]: release of the CD44 proteolytic fragments into medium was detected only in adherent IS-CD8^+ cells
